Results taken from PMC9578143, “Small-Molecule Ebselen Binds to YTHDF Proteins Interfering with the Recognition of N^6-Methyladenosine-Modified RNAs” (ACS Pharmacology & Translational Science, 2022).
Read-outs that look alike come from different tables or passages of the source.

How the values were obtained:
human YTHDF2 YTH domain = biological target: T1, human YTHDF2 YTH domain (Homo sapiens, UniProt Q9Y5A9); assay: Tryptophan fluorescence quenching assay; format: binding
T1 construct: the human YTHDF2 YTH domain (amino acids 383–553, PDB: 4WQN); made in house; host or cells: E. coli BL21(DE3)
T1 sequence (Q9Y5A9 383-553): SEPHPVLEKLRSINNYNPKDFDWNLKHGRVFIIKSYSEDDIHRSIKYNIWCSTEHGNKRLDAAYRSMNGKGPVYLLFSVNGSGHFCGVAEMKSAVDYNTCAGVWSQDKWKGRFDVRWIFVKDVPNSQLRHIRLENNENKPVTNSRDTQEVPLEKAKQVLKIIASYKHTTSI
Method: (§1) Fluorescence was measured using a Tecan Infinite 200 Microplate reader (Tecan Group Ltd.), setting the […] wavelength at 288 nm and collecting the emission data at 330 nm.

[1] = biological target: T2, YTH domain of the YTHDC1 protein (Homo sapiens, UniProt Q96MU7); assay: Tryptophan fluorescence quenching assay; format: binding
T2 construct: made in house
Method: as §1

YTHDF1 YTH domain = biological target: T3, YTHDF1 YTH domain (Homo sapiens, UniProt Q9BYJ9); assay: Tryptophan fluorescence quenching assay; format: binding
T3 construct: The human YTHDF1 YTH domain (amino acids 365–554, PDB: 4RCJ); host or cells: E. coli BL21(DE3)
T3 sequence (Q9BYJ9 365-554): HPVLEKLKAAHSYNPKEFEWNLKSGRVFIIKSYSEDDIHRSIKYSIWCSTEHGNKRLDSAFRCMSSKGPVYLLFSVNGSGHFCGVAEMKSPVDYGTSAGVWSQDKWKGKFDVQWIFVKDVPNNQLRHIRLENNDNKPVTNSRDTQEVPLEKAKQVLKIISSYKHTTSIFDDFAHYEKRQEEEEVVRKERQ
Method: as §1

[2] = biological target: T4, YTHDF2-bound mRNAs (PEG10, NOTCH2, CREBBP) in PC-3 cells (Homo sapiens, UniProt Q9Y5A9); assay: Ribonucleoprotein immunoprecipitation (RIP) followed by qRT-PCR; format: cell-based; conditions: 25 μM, 24 h, versus DMSO
T4 construct: endogenous in cells; host or cells: PC-3
T4 sequence (Q9Y5A9 1-579): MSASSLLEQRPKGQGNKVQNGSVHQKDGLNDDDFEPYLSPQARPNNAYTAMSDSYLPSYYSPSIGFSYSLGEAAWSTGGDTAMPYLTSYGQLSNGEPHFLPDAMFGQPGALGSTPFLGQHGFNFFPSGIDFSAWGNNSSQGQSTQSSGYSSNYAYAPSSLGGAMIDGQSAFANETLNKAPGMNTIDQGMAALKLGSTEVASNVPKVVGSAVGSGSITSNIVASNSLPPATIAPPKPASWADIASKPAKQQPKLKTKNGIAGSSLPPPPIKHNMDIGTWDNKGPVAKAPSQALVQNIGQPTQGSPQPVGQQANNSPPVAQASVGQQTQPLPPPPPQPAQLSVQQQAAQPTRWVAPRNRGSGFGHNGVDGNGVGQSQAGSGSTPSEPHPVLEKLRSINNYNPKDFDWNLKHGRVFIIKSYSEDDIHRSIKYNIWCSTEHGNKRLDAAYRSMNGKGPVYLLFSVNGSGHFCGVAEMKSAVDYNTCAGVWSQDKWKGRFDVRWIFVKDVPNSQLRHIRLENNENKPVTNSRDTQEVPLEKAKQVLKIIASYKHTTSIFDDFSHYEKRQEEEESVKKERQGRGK
Method: Five million cells were used for each RIP experiment followed by qRT-PCR,[65] without cross-linking steps and using 1–15 μg of the YTHDF2 antibody (Proteintech, 24744-1-AP) or the same amount of the rabbit normal IgG isotype (negative control, Cell Signaling, 2729S). Cells were harvested after 24 h of treatment with 25 μM ebselen and DMSO as the control, lysed with 20 mM Tris–HCl at pH 7.5, 100 mM KCl, 5 mM MgCl2, and 0.5% NP-40 for 10 min on ice, and centrifuged at 15,000g for 10 min at 4 °C. Lysates were then incubated with Dynabead A/G (Thermo Fisher, 10001D/10003D) for pre-clearing for 1 h at 4 °C and then with Dynabeads A/G (80/20 ratio) at RT for 1 h with YTHDF2 or rabbit isotype IgG for Ab coating. After the pre-clearing steps and the coating, lysates were split between YTHDF2 and IgG-coated beads, while 1–5% of the lysate was stored as the input and incubated O/N at 4 °C. Finally, samples were washed with NT2 buffer for five times, 5 min each at 4 °C. […] For each condition, the ΔCt value of IgG and YTHDF2 was evaluated in triplicate. Normalization of the values was then carried out following the percent input method, in which values from IgG and YTHDF2 IP were calculated as % input of the adjusted input values. […] YTHDF2 and IgG fractions were calculated as % input by subtracting to the adjusted input values their ΔCt values. […]

[3] = biological target: T5, recombinant YTH domain of the YTHDF1 protein (Homo sapiens, UniProt Q9BYJ9); assay: ESI-MS of the protein after incubation with the compound; format: binding
T5 construct: The human YTHDF1 YTH domain (amino acids 365–554, PDB: 4RCJ); host or cells: E. coli BL21(DE3)
T5 sequence (Q9BYJ9 365-554): T3 sequence (Q9BYJ9 365-554)

O=c1c2ccccc2[se]n1-c1ccccc1 [Compound 1, 2-phenyl-1,2-benzisoselenazol-3(2H)-one]
EC50 (human YTHDF2 YTH domain): 1660 nM | Interaction with the YTH domain (tryptophan fluorescence, in words) ([1]; listed as Ebselen): cannot reduce tryptophan fluorescence | Interaction with the YTH domain (tryptophan fluorescence, in words) ([1]; listed as ebselen): did not interact | EC50 (YTHDF1 YTH domain; 5 μM protein, read-out: EC50 (tryptophan quenching)): 1.63 µM | EC50 (YTHDF1 YTH domain; Table 1, read-out: EC50 (μM) (Tryptophan quenching)): 1.5 ± 0.24 µM | YTHDF2-bound target mRNA levels (RIP, in words) [2]: decrease of the mRNA levels compared to control samples | Mass shift of the YTH domain (ESI-MS) ([3]; 5 μM protein, 50 μM compound, 60 min, no DTT): 274.96 Da | Mass of the YTH domain after incubation (ESI-MS, in words) ([3]; in the presence of 1 mM DTT): matched that of the unmodified YTH domain
